According to patent publication US20130157954A1, “METHODS FOR TREATMENT OR PROPHYLAXIS OF KIDNEY OR LIVER DYSFUNCTION” (NPS PHARMACEUTICALS, INC., priority 2010, published 2013):

Assay: Example 1: kidney biomarkers (urea nitrogen, creatinine, GFR) in short bowel syndrome patients, every four weeks for 24 weeks; also sorted by >5% change from baseline
Format: in vivo, Human
Design: CREATININE (RATE BLANKED) Change from Baseline Median / GFR Median / GFR Change from Baseline Median / UREA NITROGEN Median / UREA NITROGEN Change from Baseline Median: unit not given here
Conditions: 0.05 mg/kg/day
Experimental: Human patients with short bowel syndrome were divided into three groups: a control group (16 total individuals) to receive placebo, an experimental group (35 total individuals) to receive teduglutide at 0.05 mg/kg/day throughout the study, and an experimental group (32 total individuals) to receive teduglutide at 0.1 mg/kg/day throughout the study. Patients were treated by subcutaneous injection of placebo or the appropriate dose of teduglutide. As individuals with short bowel syndrome are likely to experience associated liver and kidney disease, known biomarkers of liver and kidney function were monitored every four weeks, for 24 weeks. The liver biomarkers tested included total bilirubin, ALT and AST and ALP. The kidney biomarkers tested included urea nitrogen, creatinine and GFR. Before administration of placebo or teduglutide, diagnostic biomarker levels were tested to establish a baseline for each individual.
To visualize the effect of GLP-2 on the levels of the diagnostic biomarkers, the average change from baseline was calculated for the placebo and teduglutide treated groups for each visit after a baseline was established. The average change from baseline of each group is depicted in FIGS. 1-7. The numerical figures for each diagnostic biomarker at each time point are depicted in Table 1.
The raw data for this sorting is reproduced in Table 2 below.

## CC[C@H](C)[C@H](NC(=O)[C@H](Cc1ccccc1)NC(=O)[C@H](CC(=O)O)NC(=O)[C@H](CCCNC(=N)N)NC(=O)[C@H](C)NC(=O)[C@H](C)NC(=O)[C@H](CC(C)C)NC(=O)[C@H](CC(N)=O)NC(=O)[C@H](CC(=O)O)NC(=O)[C@H](CC(C)C)NC(=O)[C@@H](NC(=O)[C@@H](NC(=O)[C@H](CC(N)=O)NC(=O)[C@H](CCSC)NC(=O)[C@H](CCC(=O)O)NC(=O)[C@H](CC(=O)O)NC(=O)[C@H](CO)NC(=O)[C@H](Cc1ccccc1)NC(=O)[C@H](CO)NC(=O)CNC(=O)[C@H](CC(=O)O)NC(=O)CNC(=O)[C@@H](N)Cc1c[nH]cn1)[C@@H](C)O)[C@@H](C)CC)C(=O)N[C@@H](CC(N)=O)C(=O)N[C@@H](Cc1c[nH]c2ccccc12)C(=O)N[C@@H](CC(C)C)C(=O)N[C@H](C(=O)N[C@@H](CCC(N)=O)C(=O)N[C@H](C(=O)N[C@@H](CCCCN)C(=O)N[C@H](C(=O)N[C@H](C(=O)N[C@@H](CC(=O)O)C(=O)O)[C@@H](C)O)[C@@H](C)CC)[C@@H](C)O)[C@@H](C)CC [teduglutide]
DW4
  CREATININE (RATE BLANKED) Change from Baseline Median: 1.5
  CREATININE (RATE BLANKED) Median: 80 µmol/L
  GFR Change from Baseline Median: −0.6
  GFR Median: 77.0
  UREA NITROGEN Change from Baseline Median: −0.4
  UREA NITROGEN Median: 4.9
DW8
  CREATININE (RATE BLANKED) Change from Baseline Median: 0.0
  CREATININE (RATE BLANKED) Median: 71 µmol/L
  GFR Change from Baseline Median: 1.1
  UREA NITROGEN Change from Baseline Median: −0.3
  UREA NITROGEN Median: 5.2
DW12
  CREATININE (RATE BLANKED) Change from Baseline Median: 8.0
  CREATININE (RATE BLANKED) Median: 80 µmol/L
  GFR Change from Baseline Median: −5.0
  UREA NITROGEN Change from Baseline Median: −0.5
  UREA NITROGEN Median: 4.4
DW16
  CREATININE (RATE BLANKED) Change from Baseline Median: 0.0
  CREATININE (RATE BLANKED) Median: 79 µmol/L
  GFR Change from Baseline Median: 0.9
  UREA NITROGEN Change from Baseline Median: −0.3
  UREA NITROGEN Median: 4.4
DW20
  CREATININE (RATE BLANKED) Change from Baseline Median: 0.0
  GFR Change from Baseline Median: 0.9
  GFR Median: 74.0
  UREA NITROGEN Change from Baseline Median: −0.3
  UREA NITROGEN Median: 5.2
DW 24
  CREATININE (RATE BLANKED) Change from Baseline Median: −0.5
  CREATININE (RATE BLANKED) Median: 80 µmol/L
  GFR Change from Baseline Median: 1.7
  UREA NITROGEN Change from Baseline Median: −0.7
  UREA NITROGEN Median: 4.9
Week 4
  CREATININE (RATE BLANKED) change from baseline <−5%, number of patients: 7
  CREATININE (RATE BLANKED) change from baseline <−5%, percent of patients: (20.0%)
  CREATININE (RATE BLANKED) change from baseline >5%, number of patients: 14
  CREATININE (RATE BLANKED) change from baseline >5%, percent of patients: (40.0%)
  CREATININE (RATE BLANKED) change from baseline −5% <= and <=5%, number of patients: 9
  CREATININE (RATE BLANKED) change from baseline −5% <= and <=5%, percent of patients: (25.7%)
  GFR change from baseline <−5%, number of patients: 13
  GFR change from baseline <−5%, percent of patients: (37.1%)
  GFR change from baseline >5%, number of patients: 8
  GFR change from baseline >5%, percent of patients: (22.9%)
  GFR change from baseline −5% <= and <=5%, number of patients: 9
  GFR change from baseline −5% <= and <=5%, percent of patients: (25.7%)
  UREA NITROGEN change from baseline <−5%, number of patients: 16
  UREA NITROGEN change from baseline <−5%, percent of patients: (45.7%)
  UREA NITROGEN change from baseline >5%, number of patients: 7
  UREA NITROGEN change from baseline >5%, percent of patients: (20.0%)
  UREA NITROGEN change from baseline −5% <= and <=5%, number of patients: 7
  UREA NITROGEN change from baseline −5% <= and <=5%, percent of patients: (20.0%)
Week 8
  CREATININE (RATE BLANKED) change from baseline <−5%, number of patients: 11
  CREATININE (RATE BLANKED) change from baseline <−5%, percent of patients: (31.4%)
  CREATININE (RATE BLANKED) change from baseline >5%, number of patients: 10
  CREATININE (RATE BLANKED) change from baseline >5%, percent of patients: (28.6%)
  CREATININE (RATE BLANKED) change from baseline −5% <= and <=5%, number of patients: 8
  CREATININE (RATE BLANKED) change from baseline −5% <= and <=5%, percent of patients: (22.9%)
  GFR change from baseline <−5%, number of patients: 9
  GFR change from baseline <−5%, percent of patients: (25.7%)
  GFR change from baseline >5%, number of patients: 12
  GFR change from baseline >5%, percent of patients: (34.3%)
  GFR change from baseline −5% <= and <=5%, number of patients: 7
  GFR change from baseline −5% <= and <=5%, percent of patients: (20.0%)
  UREA NITROGEN change from baseline <−5%, number of patients: 14
  UREA NITROGEN change from baseline <−5%, percent of patients: (40.0%)
  UREA NITROGEN change from baseline >5%, number of patients: 10
  UREA NITROGEN change from baseline >5%, percent of patients: (28.6%)
  UREA NITROGEN change from baseline −5% <= and <=5%, number of patients: 5
  UREA NITROGEN change from baseline −5% <= and <=5%, percent of patients: (14.3%)
Week 12
  CREATININE (RATE BLANKED) change from baseline <−5%, number of patients: 7
  CREATININE (RATE BLANKED) change from baseline <−5%, percent of patients: (20.0%)
  CREATININE (RATE BLANKED) change from baseline >5%, number of patients: 16
  CREATININE (RATE BLANKED) change from baseline >5%, percent of patients: (45.7%)
  CREATININE (RATE BLANKED) change from baseline −5% <= and <=5%, number of patients: 4
  CREATININE (RATE BLANKED) change from baseline −5% <= and <=5%, percent of patients: (11.4%)
  GFR change from baseline <−5%, number of patients: 15
  GFR change from baseline <−5%, percent of patients: (42.9%)
  GFR change from baseline >5%, number of patients: 6
  GFR change from baseline >5%, percent of patients: (17.1%)
  GFR change from baseline −5% <= and <=5%, number of patients: 5
  GFR change from baseline −5% <= and <=5%, percent of patients: (14.3%)
  UREA NITROGEN change from baseline <−5%, number of patients: 17
  UREA NITROGEN change from baseline <−5%, percent of patients: (48.6%)
  UREA NITROGEN change from baseline >5%, number of patients: 6
  UREA NITROGEN change from baseline >5%, percent of patients: (17.1%)
  UREA NITROGEN change from baseline −5% <= and <=5%, number of patients: 4
  UREA NITROGEN change from baseline −5% <= and <=5%, percent of patients: (11.4%)
Week 16
  CREATININE (RATE BLANKED) change from baseline <−5%, number of patients: 8
  CREATININE (RATE BLANKED) change from baseline <−5%, percent of patients: (22.9%)
  CREATININE (RATE BLANKED) change from baseline >5%, number of patients: 8
  CREATININE (RATE BLANKED) change from baseline >5%, percent of patients: (22.9%)
  CREATININE (RATE BLANKED) change from baseline −5% <= and <=5%, number of patients: 12
  CREATININE (RATE BLANKED) change from baseline −5% <= and <=5%, percent of patients: (34.3%)
  GFR change from baseline <−5%, number of patients: 7
  GFR change from baseline <−5%, percent of patients: (20.0%)
  GFR change from baseline >5%, number of patients: 11
  GFR change from baseline >5%, percent of patients: (31.4%)
  GFR change from baseline −5% <= and <=5%, number of patients: 10
  GFR change from baseline −5% <= and <=5%, percent of patients: (28.6%)
  UREA NITROGEN change from baseline <−5%, number of patients: 12
  UREA NITROGEN change from baseline <−5%, percent of patients: (34.3%)
  UREA NITROGEN change from baseline >5%, number of patients: 10
  UREA NITROGEN change from baseline >5%, percent of patients: (28.6%)
  UREA NITROGEN change from baseline −5% <= and <=5%, number of patients: 6
  UREA NITROGEN change from baseline −5% <= and <=5%, percent of patients: (17.1%)
Week 20
  CREATININE (RATE BLANKED) change from baseline <−5%, number of patients: 9
  CREATININE (RATE BLANKED) change from baseline <−5%, percent of patients: (25.7%)
  CREATININE (RATE BLANKED) change from baseline >5%, number of patients: 10
  CREATININE (RATE BLANKED) change from baseline >5%, percent of patients: (28.6%)
  CREATININE (RATE BLANKED) change from baseline −5% <= and <=5%, number of patients: 8
  CREATININE (RATE BLANKED) change from baseline −5% <= and <=5%, percent of patients: (22.9%)
  GFR change from baseline <−5%, number of patients: 10
  GFR change from baseline <−5%, percent of patients: (28.6%)
  GFR change from baseline >5%, number of patients: 10
  GFR change from baseline >5%, percent of patients: (28.6%)
  GFR change from baseline −5% <= and <=5%, number of patients: 7
  GFR change from baseline −5% <= and <=5%, percent of patients: (20.0%)
  UREA NITROGEN change from baseline <−5%, number of patients: 13
  UREA NITROGEN change from baseline <−5%, percent of patients: (37.1%)
  UREA NITROGEN change from baseline >5%, number of patients: 7
  UREA NITROGEN change from baseline >5%, percent of patients: (20.0%)
  UREA NITROGEN change from baseline −5% <= and <=5%, number of patients: 7
  UREA NITROGEN change from baseline −5% <= and <=5%, percent of patients: (20.0%)
Week 24
  CREATININE (RATE BLANKED) change from baseline <−5%, number of patients: 8
  CREATININE (RATE BLANKED) change from baseline <−5%, percent of patients: (22.9%)
  CREATININE (RATE BLANKED) change from baseline >5%, number of patients: 9
  CREATININE (RATE BLANKED) change from baseline >5%, percent of patients: (25.7%)
  CREATININE (RATE BLANKED) change from baseline −5% <= and <=5%, number of patients: 9
  CREATININE (RATE BLANKED) change from baseline −5% <= and <=5%, percent of patients: (25.7%)
  GFR change from baseline <−5%, number of patients: 8
  GFR change from baseline <−5%, percent of patients: (22.9%)
  GFR change from baseline >5%, number of patients: 10
  GFR change from baseline >5%, percent of patients: (28.6%)
  GFR change from baseline −5% <= and <=5%, number of patients: 8
  GFR change from baseline −5% <= and <=5%, percent of patients: (22.9%)
  UREA NITROGEN change from baseline <−5%, number of patients: 17
  UREA NITROGEN change from baseline <−5%, percent of patients: (48.6%)
  UREA NITROGEN change from baseline >5%, number of patients: 7
  UREA NITROGEN change from baseline >5%, percent of patients: (20.0%)
  UREA NITROGEN change from baseline −5% <= and <=5%, number of patients: 2
  UREA NITROGEN change from baseline −5% <= and <=5%, percent of patients: (5.7%)
